Test results from patent US20100113484A1, “TREATING AGENT OF UROPATHY” (ASKA PHARMACEUTICAL CO., LTD., priority 2006, published 2010).

Experiments:
[1] = molecular target: T1, human recombinant PDE9 protein (Homo sapiens, UniProt O76083); experiment: Measurement of PDE9-inhibiting activity ([3H]-cGMP hydrolysis); format: biochemical; conditions: Tables A and C; read-out: Inhibiting Activity (IC50 value) PDE9
T1 construct: made in house; host or cells: COS-1 cells, transient transfection with pcDNA 3.1 (+); supernatant of the homogenate, not purified
Experimental: Based on the base sequence of hsPDE9A1 registered with GenBank database (accession No.: AF048837), hsPDE9A1 fragment was amplified by polymerase chain reaction under the following conditions, using the following sequence (Amasham Pharmacia Biotech) as the primer and Human Prostate […] cDNA library (CLONTECH) as the template DNA, with Pfu Turbo DNA polymerase ([…]):
PCR condition: [95° C., 5 min]×1 cycle, [(95° C., 1 min), (58° C., 2 min), (72° C., 3 min)]×25 cycles, [72° C., 10 min]×1 cycle
Thus obtained hsPDE9A1 fragment was given a restricted enzymatic treatment with NheI and NotI, and thereafter inserted into pcDNA 3.1 (+) expression vector (Invitrogen) to let it serve as a human PDE9 expression vector.
(§1) Human PDE9 expression vector-transformed Escherichia coli was mass incubated to produce a large amount of human PDE9 expression vector, which was transiently transfected into COS-1 cells, with LIPOFECTAMINE 2000 Reagent (GIBCO). The cells were homogenized in ice-cooled buffer A (40 mmol/L Tris-HCl, pH7.5, 15 mmol/L benzamidine, 15 mmol/L 2-mercaptoethanol, 1 μg/mL Pepstatin A, 1 μg/mL Leupeptin, 5 mmol/L EDTA) and centrifuged at 4° C., 14,000×g for 10 minutes. The supernatant was isolated to provide human recombinant PDE9 protein solution.
This mixed solution was incubated at 30° C. for 30 minutes and the enzymatic reaction of PDE9 was terminated by heating the system in boiling water for 90 seconds. Returning the system to room temperature, 50 μL of Snake venom (SIGMA: 1 mg/mL) was added, followed by 10 minutes' incubation at 30° C., to convert the [^3H]-5′-GMP produced in the previous reaction to [^3H]-guanosine. […] Thereafter [^3H]-guanosine was eluted with 3 mL of 3 mol/L aqueous ammonia and its radiation activity was measured with liquid scintillation counter.
PDE9 inhibition of the tested compound can be calculated by the following formula: […]
From the percent inhibition at various concentration levels of each tested compound, its IC50 value against PDE9 can be determined.

[2] = molecular target: T2, human recombinant PDE5 protein (Homo sapiens, UniProt O76074); experiment: Measurement of PDE5-inhibiting activity; format: biochemical; conditions: Tables A and C; read-out: Inhibiting Activity (IC50 value) PDE5
T2 construct: made in house; host or cells: COS-1 cells, transient transfection with pcDNA 3.1 (+); supernatant of the homogenate, not purified
Experimental: PCR condition: [94° C., 2 min]×1 cycle, [(94° C., 30 sec), (65° C., 30 sec), (68° C., 3 min)]×25 cycles, [68° C., 6 min]×1 cycle
Thus obtained hsPDE5A1 fragment was given a restricted enzymatic treatment with XBaI and EcoRI, and thereafter inserted into pcDNA 3.1 (+) expression vector (Invitrogen) to let it serve as a human PDE5 expression vector.
as §1, with “PDE5” for “PDE9”, “A” for “A (40 mmol/L Tris-HCl, pH7.5, 15 mmol/L benzamidine, 15 mmol/L 2-mercaptoethanol, 1 μg/mL Pepstatin A, 1 μg/mL Leupeptin, 5 mmol/L EDTA)”

[3] = system: partial urethra obstruction model in guinea pigs; experiment: Dysuria pathological model: partial urethra obstruction model, cystometry; format: in vivo, Hartley female guinea pigs; conditions: guinea pig, i.v.
Experimental: Three-four weeks old Hartley female guinea pigs (Japan SLC, Inc.) were given celiotomy under anesthesia with pentobarbital (30 mg/kg i.p.) and in their urethra to the peripheral side by 1-2 mm from the bladder neck, each a polyethylene tube of 1.4 mm in width and 2.0 mm in inner diameter was placed. After closing the wound, the guinea pigs were bred for at least 3 weeks to produce partial urethra obstruction model in guinea pigs in which occurrence of intravesical pressure rise not accompanied by micturition (uninhibited contraction) and residual urine were observed.
The model was catheterized under anesthesia with urethane (1 g/kg i.p.) at the apex of urinary bladder and right jugular vein for cystometrography and intravenous administration, respectively. The other end of the bladder catheter was connected to a pressure transducer and infusion pump via a three way stop-cock, and physiological saline was continuously infused into the bladder through the infusion pump at a rate of 0.4 mL/min to induce micturition reflex. Immediately after the micturition reflex was induced, infusion of physiological saline into the bladder was stopped. The intravesical pressure at the time the micturition reflex was induced was measured with the pressure transducer, and the obtained cystometrogram was recorded with pen recorder. The urine voided was collected with disposable type weighing dish and its weight was measured. Further the physiological saline remained in the bladder was sucked with syringe via the bladder catheter and the residual urine volume was measured. The operations of suspending the infusion of physiological saline upon induction of micturition reflex, and about 1 minute thereafter resuming the infusion of physiological saline to induce micturition reflex were repeated plural times (generally 4 times) to stabilize the micturition reflex.
After stabilizing the micturition reflex, a compound solution (prepared by dissolving the compound or methanesulfonic acid salt thereof in DMSO and diluting it with physiological saline or distilled water) or physiological saline was administered into the vein at a volume of 10 mL/kg over 4 minutes, and simultaneously the above-described micturition reflex operations were repeated until 30 minutes passed after initiation of the administration, while measuring the intravesical pressure and the volumes of micturition and residual urine. Also the frequency of uninhibited contraction occurrence during the above-described operations was recorded.

T1 sequence (O76083 whole entry): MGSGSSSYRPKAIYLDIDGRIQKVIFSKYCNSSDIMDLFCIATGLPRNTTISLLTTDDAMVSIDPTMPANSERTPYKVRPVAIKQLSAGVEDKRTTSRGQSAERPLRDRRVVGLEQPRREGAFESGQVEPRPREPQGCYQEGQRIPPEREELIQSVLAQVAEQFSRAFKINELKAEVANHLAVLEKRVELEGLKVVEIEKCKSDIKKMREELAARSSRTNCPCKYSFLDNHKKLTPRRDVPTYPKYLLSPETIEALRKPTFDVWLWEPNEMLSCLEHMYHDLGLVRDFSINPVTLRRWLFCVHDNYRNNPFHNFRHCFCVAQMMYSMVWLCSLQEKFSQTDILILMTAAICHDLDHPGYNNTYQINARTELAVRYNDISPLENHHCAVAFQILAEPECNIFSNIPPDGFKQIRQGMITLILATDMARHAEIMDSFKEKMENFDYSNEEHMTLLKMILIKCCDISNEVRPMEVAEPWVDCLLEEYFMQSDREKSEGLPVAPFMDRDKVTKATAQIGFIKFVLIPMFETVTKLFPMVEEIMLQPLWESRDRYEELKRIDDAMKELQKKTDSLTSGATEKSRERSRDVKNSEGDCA

In the case of `Cc1c(C(=O)O)sc2nc(Cc3ccc(Cl)c(Cl)c3)[nH]c(=O)c12` [A-7, 2-(3,4-Dichlorobenzyl)-5-methyl-4-oxo-3,4-dihydrothieno-[2,3-d]pyrimidine-6-carboxylic acid], the IC50 [1] is reported as 38 nM, the IC50 [2] is reported as 915 nM and the “Frequency of occurrence of uninhibited contraction after administration” value ([3]; 1 mg/kg) is reported as 0.79 times/min. The “Frequency of occurrence of uninhibited contraction volume change” value ([3]; 1 mg/kg) was −0.17 times/min, the “Residual urine volume after administration” value ([3]; 1 mg/kg) was 0.86 mL and the “Residual urine volume volume change” value ([3]; 1 mg/kg) was “+0.04 mL”. The “Frequency of occurrence of uninhibited contraction after administration” value ([3]; 3 mg/kg) was 0.77 times/min, the “Frequency of occurrence of uninhibited contraction volume change” value ([3]; 3 mg/kg) was −0.39 times/min and the “Residual urine volume after administration” value ([3]; 3 mg/kg) was 1.03 mL. For the same compound, the “Residual urine volume volume change” value ([3]; 3 mg/kg) was -0.30 mL, the “Frequency of occurrence of uninhibited contraction after administration” value ([3]; 10 mg/kg) was 0.64 times/min and the “Frequency of occurrence of uninhibited contraction volume change” value ([3]; 10 mg/kg) was −0.47 times/min. The “Residual urine volume after administration” value ([3]; 10 mg/kg) was 0.64 mL and the “Residual urine volume volume change” value ([3]; 10 mg/kg) was -0.42 mL.
In the case of `Cc1c(C(=O)O)sc2nc(Cc3cccc(Cl)c3)[nH]c(=S)c12` [A-26, 2-(3-Chlorobenzyl)-5-methyl-4-thioxo-3,4-dihydrothieno-[2,3-d]pyrimidine-6-carboxylic acid], the IC50 [1] is reported as 5 nM, the IC50 [2] is reported as 1110 nM and the “Frequency of occurrence of uninhibited contraction after administration” value ([3]; 0.3 mg/kg) is reported as 1.02 times/min. For the same compound, the “Frequency of occurrence of uninhibited contraction volume change” value ([3]; 0.3 mg/kg) was −0.10 times/min, the “Residual urine volume after administration” value ([3]; 0.3 mg/kg) was 0.91 mL and the “Residual urine volume volume change” value ([3]; 0.3 mg/kg) was -0.11 mL. For the same compound, the “Frequency of occurrence of uninhibited contraction after administration” value ([3]; 3 mg/kg) was 0.76 times/min, the “Frequency of occurrence of uninhibited contraction volume change” value ([3]; 3 mg/kg) was −0.36 times/min and the “Residual urine volume after administration” value ([3]; 3 mg/kg) was 0.27 mL. The “Residual urine volume volume change” value ([3]; 3 mg/kg) was -0.75 mL, the “Frequency of occurrence of uninhibited contraction after administration” value ([3]; 10 mg/kg) was 0.59 times/min and the “Frequency of occurrence of uninhibited contraction volume change” value ([3]; 10 mg/kg) was −0.53 times/min. For the same compound, the “Residual urine volume after administration” value ([3]; 10 mg/kg) was 0.48 mL and the “Residual urine volume volume change” value ([3]; 10 mg/kg) was -0.54 mL.
In the case of `Cc1c(C(=O)O)sc2nc(Cc3cccc(Cl)c3)[nH]c(=O)c12` [A-4, 2-(3-Chlorobenzyl)-5-methyl-4-oxo-3,4-dihydrothieno[2,3-d]-pyrimidine-6-carboxylic acid], the IC50 [1] is reported as 30 nM, the IC50 [2] is reported as 6770 nM and the “Frequency of occurrence of uninhibited contraction after administration” value ([3]; 0.3 mg/kg) is reported as 0.80 times/min. The “Frequency of occurrence of uninhibited contraction volume change” value ([3]; 0.3 mg/kg) was −0.36 times/min, the “Residual urine volume after administration” value ([3]; 0.3 mg/kg) was 1.08 mL and the “Residual urine volume volume change” value ([3]; 0.3 mg/kg) was “+0.13 mL”. For the same compound, the “Frequency of occurrence of uninhibited contraction after administration” value ([3]; 3 mg/kg) was 0.49 times/min, the “Frequency of occurrence of uninhibited contraction volume change” value ([3]; 3 mg/kg) was −0.67 times/min and the “Residual urine volume after administration” value ([3]; 3 mg/kg) was 1.11 mL. For the same compound, the “Residual urine volume volume change” value ([3]; 3 mg/kg) was “+0.16 mL”, the “Frequency of occurrence of uninhibited contraction after administration” value ([3]; 10 mg/kg) was 0.60 times/min and the “Frequency of occurrence of uninhibited contraction volume change” value ([3]; 10 mg/kg) was −0.56 times/min. The “Residual urine volume after administration” value ([3]; 10 mg/kg) was 0.95 mL and the “Residual urine volume volume change” value ([3]; 10 mg/kg) was 0.00 mL.
For `Cc1c(C(=O)O)sc2nc(Cc3cccs3)[nH]c(=O)c12` [A-2, 5-Methyl-4-oxo-2-(thiophen-2-ylmethyl)-3,4-dihydrothieno-[2,3-d]pyrimidine-6-carboxylic acid], the IC50 [1] was 40 nM, the IC50 [2] was 21100 nM and the “Frequency of occurrence of uninhibited contraction after administration” value ([3]; 1 mg/kg) was 0.47 times/min. The “Frequency of occurrence of uninhibited contraction volume change” value ([3]; 1 mg/kg) was −0.44 times/min, the “Residual urine volume after administration” value ([3]; 1 mg/kg) was 1.23 mL and the “Residual urine volume volume change” value ([3]; 1 mg/kg) was -0.04 mL. The “Frequency of occurrence of uninhibited contraction after administration” value ([3]; 10 mg/kg) was 0.78 times/min, the “Frequency of occurrence of uninhibited contraction volume change” value ([3]; 10 mg/kg) was −0.13 times/min and the “Residual urine volume after administration” value ([3]; 10 mg/kg) was 1.02 mL. For the same compound, the “Residual urine volume volume change” value ([3]; 10 mg/kg) was -0.25 mL.
